{
  "source": "patent US20230190933A1",
  "about": "“Immunologically Active Peptide-Biliverdin Conjugate, Preparation Method Therefor and Application Thereof” (priority 2020, published 2023)",
  "key": {"[1]": {"test_system": "cervical cancer U14 mouse model", "details": "5 mg kg^-1 intraperitoneally; 2nd, 4th and 7th day"}, "[2]": {"test_system": "mouse colon cancer cells ct-26", "procedure": "According to the standard tumor mouse modeling method, C57BL/6 mouse model was established, and the mouse colon cancer cells ct-26 were inoculated subcutaneously, and then these mice were fed in SPF environment. […] The mice were divided into the following four groups: blank group (normal saline), conjugate group (no light group) and conjugate group (light group), with 10 mice in each group. These mice were administered once on the 1st, 3rd, 8th and 12th day with the administration concentration being 2 mg kg^-1. Wherein, the mice of the conjugate (light group) were irradiated with laser once 4 hours after administration on the first day, and the parameters were as follows: the laser intensity was 0.5 W/cm^2 and the laser wavelength was 808 nm. The tumor inhibition of mice during the whole treatment cycle (the cycle is 45 days) was monitored."}, "[3]": {"assay": "temperature rise in vitro under laser irradiation", "assay_type": "physicochemical", "details": "0.2 mg mL^-1, 730 nm laser, 0.3 W/cm^2, 10 min", "method": "Firstly, biliverdin-Mn metal complex was chemically synthesized by biliverdin and excess manganese acetate tetrahydrate, and the biliverdin-Mn-[…] conjugate was prepared from biliverdin-Mn metal complex and […] according to the aforementioned chemical synthesis method. […] 1 mL of this conjugate (at a concentration of 0.2 mg mL^-1) was irradiated at 730 nm laser (0.3 W/cm^2) for 10 min, and the temperature rise of the conjugate solution was investigated."}, "lung cancer Lewis": {"test_system": "lung cancer Lewis", "assay": "combination of photothermal immunotherapy and immunotherapy (interferon)", "assay_type": "in vivo", "details": "conjugate 3 mg kg^-1 combined with interferon 20U/ mouse, initial volume 300 mm^3", "method": "(§1) The biliverdin-[…] conjugate was prepared from biliverdin molecule and […] according to the above chemical synthesis method."}, "skin melanoma B16-F10": {"test_system": "skin melanoma B16-F10", "assay": "combination of photothermal immunotherapy and immunotherapy (interferon)", "assay_type": "in vivo", "details": "conjugate 3 mg kg^-1 combined with interferon 20U/ mouse, initial volume 300 mm^3", "method": "as §1"}, "[4]": {"test_system": "mouse breast cancer cells 4T1", "details": "absence of light; 100 uL of 0.2 mg mL^-1 intraperitoneally on day 1, 2, 4, 8; 28 days"}, "[5]": {"test_system": "in-situ model of pancreatic cancer Pan02", "details": "4 mg kg^-1, presence and absence of light (730 nm, 0.5 W/cm^2), 15th day"}, "[6]": {"test_system": "Human Umbilical Vein Endothelial Cells HUVEC", "assay": "MTT colorimetric method, incubation in the dark", "assay_type": "cell-based", "details": "different concentration gradients", "method": "The biliverdin-[…] conjugate was prepared from biliverdin molecule and […] according to the chemical synthesis method of Example 1. […] The prepared conjugates with different concentration gradients were incubated with Human Umbilical Vein Endothelial Cells HUVEC in the dark, and the biological safety of the conjugates was evaluated by MTT colorimetric method."}, "[7]": {"assay": "cyclic (three) photothermal heating curves", "assay_type": "physicochemical", "details": "compared with biliverdin molecule; three heating cycles"}},
  "note": "Where no end group is shown, it is not given here.",
  "data": [
    {"substance": "biliverdin-EQLESIINFEKLTE conjugate [Example 13]", "values": [
      {"measurement": "immune effect (CD4+T and CD8+T cells in spleen and draining lymph nodes)", "setting": "[1]", "result": "has immune effect"}
    ]},
    {"substance": "biliverdin-QQKFQFQFEQQ conjugate [Example 9]", "values": [
      {"measurement": "therapeutic effect of tumor photothermal immunotherapy (tumor inhibition curve)", "setting": "[2]; 2 mg kg^-1 on day 1, 3, 8, 12, 45 day cycle", "result": "good therapeutic effect"},
      {"measurement": "tumor clearance", "setting": "[2]; light group, 2 mg kg^-1, 808 nm 0.5 W/cm^2, 29th day after treatment", "result": "all the mice tumors were cleared"},
      {"measurement": "tumor recurrence", "setting": "[2]; light group, monitored from the 30th day to the 45th day", "result": "can effectively prevent tumor recurrence"}
    ]},
    {"substance": "biliverdin-Mn-YLEPGPVTA conjugate [Example 7]", "values": [
      {"measurement": "photo-thermal conversion effect (temperature rise)", "setting": "[3]", "result": "good photo-thermal conversion effect"}
    ]},
    {"substance": "biliverdin-PDRAHYNI conjugate [Example 15]", "values": [
      {"measurement": "combined inhibitory effect on tumor", "setting": "lung cancer Lewis", "result": "significantly enhances the anti-tumor effect"},
      {"measurement": "combined inhibitory effect on tumor", "setting": "skin melanoma B16-F10", "result": "significantly enhances the anti-tumor effect"}
    ]},
    {"substance": "biliverdin-IMDQVPFSV conjugate [Example 8]", "values": [
      {"measurement": "anti-tumor behavior (tumor volume)", "setting": "[4]", "result": "potential immune anti-tumor activity"}
    ]},
    {"substance": "biliverdin-Ga-FKFEFKFE conjugate [Example 10]", "values": [
      {"measurement": "immune promoting factor content in tumor (IFN-7)", "setting": "[5]", "result": "up-regulate the organism’s immunity"},
      {"measurement": "immune suppressing factor content in tumor (IL-4 and IL-10)", "setting": "[5]", "result": "down-regulate the immunosuppressive behavior"}
    ]},
    {"substance": "biliverdin-SIINFEKL conjugate [Example 1]", "values": [
      {"measurement": "cytotoxicity (cell activity)", "setting": "[6]", "result": "no obvious cytotoxicity"},
      {"measurement": "cyclic stability of photothermal heating", "setting": "[7]", "result": "better cyclic stability"},
      {"measurement": "photothermal heating effect", "setting": "[7]", "result": "better heating effect"}
    ]}
  ]
}
